Our source for the TGI values is PubChem BioAssay (NCI).

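48-hour exposure; five concentrations; linearly interpolated endpoints. TGI: concentration producing complete growth inhibition.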

Test systems include LOX IMVI melanoma; NCI/ADR-RES ovarian; SF-295 CNS; RXF 393 renal; OVCAR-5 ovarian; OVCAR-4 ovarian; BT-549 breast; SN12C renal; SK-MEL-2 melanoma; UO-31 renal; SK-OV-3 ovarian; UACC-62 melanoma; 786-0 renal; KM12 colon; K-562 leukemia; DU-145 prostate; UACC-257 melanoma; HOP-62 NSCLC; PC-3 prostate; M14 melanoma.
Experiment in all cases: DTP human tumour cell line panel, 48 h

As a reminder, the TGI is the concentration at which net growth stops.

On to `COC(=O)c1ccccc1C1CN=NC12Cc1ccc(C)cc1C2=O` (stereo not given), for which the TGI in the experiment with LOX IMVI melanoma, in the experiment with NCI/ADR-RES ovarian, in the experiment on SF-295 CNS, with RXF 393 renal, in the experiment on OVCAR-5 ovarian and in the experiment on OVCAR-4 ovarian was greater than 100 µM in each case. Further, the TGI in the experiment on BT-549 breast, with SN12C renal, in the experiment on SK-MEL-2 melanoma, in the experiment with UO-31 renal, in the experiment on SK-OV-3 ovarian and in the experiment on UACC-62 melanoma was greater than 100 µM each time. The TGI in the experiment with 786-0 renal, with KM12 colon, in the experiment with K-562 leukemia, in the experiment on DU-145 prostate, in the experiment with UACC-257 melanoma and with HOP-62 NSCLC was greater than 100 µM throughout. Also, the TGI with PC-3 prostate and in the experiment with M14 melanoma was greater than 100 µM throughout.

With `CC(C)=CCC[C@@H](C)C1=C(O)C(N[C@H](C)c2ccccc2)=C(C)C(=O)C1=O`, the TGI in the experiment on LOX IMVI melanoma was 22.1 µM; in the experiment on NCI/ADR-RES ovarian, 4.23 µM; with SF-295 CNS, 16.9 µM; in the experiment on RXF 393 renal, 25 µM; with OVCAR-5 ovarian, greater than 72.1 µM; in the experiment on OVCAR-4 ovarian it was greater than 60.1 µM. Also, the TGI in the experiment on BT-549 breast was found to be 67 µM; in the experiment on SN12C renal it was 53.2 µM; in the experiment on SK-MEL-2 melanoma, 29.3 µM; in the experiment on UO-31 renal, 38.9 µM; in the experiment on SK-OV-3 ovarian it was 45.4 µM; in the experiment with UACC-62 melanoma it was 9.71 µM. For the same molecule, the TGI in the experiment on 786-0 renal was 20.7 µM; with KM12 colon it was greater than 46 µM; in the experiment with K-562 leukemia, greater than 60.7 µM; in the experiment on DU-145 prostate, 38.9 µM; with UACC-257 melanoma, 53.4 µM; in the experiment on HOP-62 NSCLC it was 20 µM. Also, the results for the TGI in the experiment on PC-3 prostate and in the experiment on M14 melanoma were greater than 100 µM and greater than 31.7 µM, respectively.

With `Cc1sc(/N=C/C2=C(O)CC(C)(C)CC2=O)nc1-c1ccccc1`, the TGI in the experiment on LOX IMVI melanoma, in the experiment with NCI/ADR-RES ovarian, in the experiment with SF-295 CNS, with RXF 393 renal, in the experiment on OVCAR-5 ovarian and in the experiment with OVCAR-4 ovarian was greater than 100 µM in each case. For the same molecule, the TGI in the experiment on BT-549 breast, in the experiment on SN12C renal, with SK-MEL-2 melanoma, in the experiment on UO-31 renal, in the experiment with SK-OV-3 ovarian and in the experiment with UACC-62 melanoma was greater than 100 µM in each case. Further, the TGI in the experiment on 786-0 renal, in the experiment on KM12 colon, with K-562 leukemia, in the experiment with DU-145 prostate, with UACC-257 melanoma and in the experiment with HOP-62 NSCLC was greater than 100 µM throughout. The TGI in the experiment on PC-3 prostate and in the experiment with M14 melanoma was greater than 100 µM in each case.

`CCCOC(=O)c1cc(O)c(O)c(O)c1`: the TGI in the experiment on LOX IMVI melanoma was 30.8 µM; with NCI/ADR-RES ovarian, greater than 100 µM; in the experiment with SF-295 CNS, greater than 100 µM; in the experiment on RXF 393 renal, greater than 100 µM; in the experiment on OVCAR-5 ovarian, greater than 100 µM; with OVCAR-4 ovarian, greater than 100 µM. In addition, the TGI with BT-549 breast, with SN12C renal, in the experiment on SK-MEL-2 melanoma, in the experiment on UO-31 renal, in the experiment with SK-OV-3 ovarian and with UACC-62 melanoma was greater than 100 µM each time. The TGI with 786-0 renal, in the experiment with KM12 colon, in the experiment on K-562 leukemia, in the experiment with DU-145 prostate, in the experiment on UACC-257 melanoma and in the experiment on HOP-62 NSCLC was greater than 100 µM throughout. The TGI in the experiment with PC-3 prostate and in the experiment on M14 melanoma was greater than 100 µM in each case.

In the case of `CC(=O)N[C@@H](Cc1ccc(O)cn1)C(=O)NCc1ccc(Cl)cc1`, the TGI in the experiment on LOX IMVI melanoma, in the experiment with NCI/ADR-RES ovarian, in the experiment with SF-295 CNS, in the experiment with RXF 393 renal, in the experiment on OVCAR-5 ovarian and in the experiment on OVCAR-4 ovarian was greater than 100 µM in each case. The TGI in the experiment with BT-549 breast, with SN12C renal, in the experiment on SK-MEL-2 melanoma, in the experiment on UO-31 renal, in the experiment on SK-OV-3 ovarian and in the experiment with UACC-62 melanoma was greater than 100 µM throughout. In addition, the TGI in the experiment on 786-0 renal, in the experiment with KM12 colon, in the experiment on K-562 leukemia, with DU-145 prostate, in the experiment on UACC-257 melanoma and in the experiment with HOP-62 NSCLC was greater than 100 µM in each case. Further, the TGI with PC-3 prostate and in the experiment with M14 melanoma was greater than 100 µM throughout.

On to `O=C(NNC(=O)c1ccco1)c1ccco1`, for which the concentration for total growth inhibition (TGI) with LOX IMVI melanoma, in the experiment on NCI/ADR-RES ovarian, in the experiment on SF-295 CNS, in the experiment with RXF 393 renal, with OVCAR-5 ovarian and with OVCAR-4 ovarian was greater than 100 µM throughout. Further, the TGI in the experiment with BT-549 breast, in the experiment with SN12C renal, in the experiment on SK-MEL-2 melanoma, in the experiment with UO-31 renal, in the experiment on SK-OV-3 ovarian and in the experiment on UACC-62 melanoma was greater than 100 µM each time. Moreover, the TGI in the experiment on 786-0 renal, in the experiment with KM12 colon, with K-562 leukemia, with DU-145 prostate, in the experiment on UACC-257 melanoma and in the experiment on HOP-62 NSCLC was greater than 100 µM throughout. For the same molecule, the TGI with PC-3 prostate and with M14 melanoma was greater than 100 µM in each case.

Take `COC(=O)[C@@H]1c2c(oc3cc(CO)cc(O)c3c2=O)C=C[C@H]1O`: the TGI in the experiment with LOX IMVI melanoma came to 12.4 µM; with NCI/ADR-RES ovarian it was 47.5 µM; with SF-295 CNS, 35.7 µM; in the experiment on RXF 393 renal, 10.1 µM; in the experiment on OVCAR-5 ovarian it was 22.8 µM; in the experiment with OVCAR-4 ovarian, 12 µM. Further, the TGI with BT-549 breast amounted to 12.4 µM; with SN12C renal, 23.6 µM; with SK-MEL-2 melanoma it was 28.9 µM; in the experiment with UO-31 renal it was 14.2 µM; in the experiment with SK-OV-3 ovarian, 35.4 µM; with UACC-62 melanoma it was 25 µM. Besides, the TGI was 12 µM in the experiment on 786-0 renal; 14.8 µM in the experiment on KM12 colon; greater than 100 µM in the experiment with K-562 leukemia; 11.7 µM in the experiment on DU-145 prostate; 21.5 µM with UACC-257 melanoma; 40 µM with HOP-62 NSCLC. Also, the values for the TGI with PC-3 prostate and in the experiment on M14 melanoma were 20.1 µM and 19.8 µM, respectively.

Turning to `NCCCN(CCCCN(CCCN)CCCc1ccccc1)CCCc1ccccc1`, the TGI in the experiment on LOX IMVI melanoma came out at 6.38 µM; in the experiment on NCI/ADR-RES ovarian it was 43.1 µM; in the experiment with SF-295 CNS, 3.16 µM; in the experiment with RXF 393 renal, 5.64 µM; with OVCAR-5 ovarian, 24.9 µM; in the experiment with OVCAR-4 ovarian, 17.1 µM. The TGI with BT-549 breast is 10.1 µM; with SN12C renal, 16.9 µM; with SK-MEL-2 melanoma it was 3.25 µM; with UO-31 renal, 5.66 µM; in the experiment on SK-OV-3 ovarian, 14.1 µM; in the experiment with UACC-62 melanoma it was 3.28 µM. In addition, the TGI is 2.91 µM with 786-0 renal; 6.43 µM with KM12 colon; 3.57 µM in the experiment with K-562 leukemia; 23.8 µM in the experiment on DU-145 prostate; 3.45 µM in the experiment with UACC-257 melanoma; 25.4 µM in the experiment with HOP-62 NSCLC. Further, the TGI in the experiment on PC-3 prostate is 12.3 µM; with M14 melanoma, 3.57 µM.
